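Assay format: 96-well plates, 48-hour exposure. TGI marks complete inhibition of growth.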
What was measured:
Test in all cases: NCI tumour cell line growth inhibition, 48 h
[1] = system: SK-OV-3 ovarian
[2] = system: RPMI-8226 leukemia
[3] = system: ACHN renal
[4] = system: SNB-75 CNS
[5] = system: TK-10 renal
[6] = system: HOP-92 NSCLC
[7] = system: KM20L2 colon
[8] = system: MALME-3M melanoma
[9] = system: UO-31 renal
[10] = system: KM12 colon
[11] = system: UACC-62 melanoma
[12] = system: SN12C renal
[13] = system: A549 NSCLC
[14] = system: OVCAR-4 ovarian
[15] = system: HOP-62 NSCLC
[16] = system: SK-MEL-5 melanoma
[17] = system: DMS 114 small cell lung
[18] = system: LOX IMVI melanoma
[19] = system: SK-MEL-28 melanoma
[20] = system: RXF-631 renal
[21] = system: SF-268 CNS
[22] = system: COLO 205 colon
[23] = system: SW-620 colon
[24] = system: HL-60(TB) leukemia
[25] = system: CCRF-CEM leukemia
[26] = system: NCI-H522 lung
[27] = system: OVCAR-8 ovarian
[28] = system: SF-295 CNS
[29] = system: HCC-2998 colon
[30] = system: EKVX NSCLC
[31] = system: RXF 393 renal
[32] = system: 786-0 renal
[33] = system: OVCAR-3 ovarian
[34] = system: DLD-1 colon
[35] = system: HCT-116 colon
[36] = system: SNB-19 CNS
[37] = system: K-562 leukemia
[38] = system: UACC-257 melanoma
[39] = system: DMS 273 small cell lung
[40] = system: HCT-15 colon
[41] = system: IGROV1 ovarian
[42] = system: SK-MEL-2 melanoma
[43] = system: NCI-H23 lung
[44] = system: M14 melanoma
[45] = system: XF 498 CNS
[46] = system: U251 CNS
[47] = system: LXFL 529 NSCLC
[48] = system: MOLT-4 leukemia
[49] = system: NCI-H226 lung
[50] = system: SF-539 CNS
[51] = system: NCI-H460 lung
[52] = system: OVCAR-5 ovarian
[53] = system: SNB-78 CNS
[54] = system: M19-MEL melanoma
[55] = system: HT29 colon
[56] = system: CAKI-1 renal
[57] = system: A498 renal

With `O=C1Nc2cc([N+](=O)[O-])ccc2NC1/C(=N\Nc1ccccc1)C(O)c1cccc([N+](=O)[O-])c1` (stereo not given) the TGI [1] was greater than 100 µM, the TGI [2] was greater than 100 µM and the TGI [3] was greater than 100 µM. It also gave a TGI [4] greater than 100 µM, a TGI [5] greater than 100 µM and a TGI [6] greater than 100 µM. For the same compound, the TGI [7] was greater than 100 µM, the TGI [8] was greater than 100 µM and the TGI [9] was greater than 100 µM. For the same compound, the TGI [10] was greater than 100 µM, the TGI [11] was greater than 100 µM and the TGI [12] was greater than 100 µM. The TGI [13] was greater than 100 µM, the TGI [14] was greater than 100 µM and the TGI [15] was greater than 100 µM. It also gave a TGI [16] of 45.1 µM, a TGI [17] greater than 100 µM and a TGI [18] greater than 100 µM. The TGI [19] was greater than 100 µM, the TGI [20] was greater than 100 µM and the TGI [21] was greater than 100 µM. For the same compound, the TGI [22] was greater than 100 µM, the TGI [23] was greater than 100 µM and the TGI [24] was greater than 100 µM. For the same compound, the TGI [25] was greater than 100 µM, the TGI [26] was greater than 100 µM and the TGI [27] was greater than 100 µM. For the same compound, the TGI [28] was greater than 100 µM, the TGI [29] was greater than 100 µM and the TGI [30] was greater than 100 µM. For the same compound, the TGI [31] was greater than 100 µM, the TGI [32] was greater than 100 µM and the TGI [33] was greater than 100 µM. For the same compound, the TGI [34] was greater than 100 µM, the TGI [35] was greater than 100 µM and the TGI [36] was greater than 100 µM. The TGI [37] was greater than 100 µM, the TGI [38] was greater than 100 µM and the TGI [39] was greater than 100 µM. The TGI [40] was 44.7 µM, the TGI [41] was greater than 100 µM and the TGI [42] was greater than 100 µM. It also gave a TGI [43] greater than 100 µM, a TGI [44] greater than 100 µM and a TGI [45] greater than 100 µM. It also gave a TGI [46] greater than 100 µM, a TGI [47] greater than 100 µM and a TGI [48] greater than 100 µM. It also gave a TGI [49] greater than 100 µM, a TGI [50] greater than 100 µM and a TGI [51] greater than 100 µM. For the same compound, the TGI [52] was greater than 100 µM, the TGI [53] was greater than 100 µM and the TGI [54] was greater than 100 µM. The TGI [55] was greater than 100 µM.

`COc1ccc(/C(=N/Nc2ccccc2)C(c2ccc(OC)cc2)C2OC(=O)c3ccccc32)cc1` (stereo not given) was tested, and the TGI [3] was greater than 100 µM, the TGI [4] was greater than 100 µM and the TGI [7] was greater than 100 µM. It also gave a TGI [8] greater than 100 µM, a TGI [9] greater than 100 µM and a TGI [11] greater than 100 µM. It also gave a TGI [12] greater than 100 µM, a TGI [13] greater than 100 µM and a TGI [14] greater than 100 µM. It also gave a TGI [15] greater than 100 µM, a TGI [16] greater than 100 µM and a TGI [17] greater than 100 µM. The TGI [56] was greater than 100 µM, the TGI [20] was greater than 100 µM and the TGI [57] was greater than 100 µM. The TGI [21] was 91.8 µM, the TGI [22] was greater than 100 µM and the TGI [25] was greater than 100 µM. The TGI [26] was greater than 100 µM, the TGI [27] was greater than 100 µM and the TGI [28] was greater than 100 µM. For the same compound, the TGI [29] was greater than 100 µM, the TGI [30] was greater than 100 µM and the TGI [32] was greater than 100 µM. The TGI [35] was greater than 100 µM, the TGI [36] was greater than 100 µM and the TGI [37] was greater than 100 µM. The TGI [38] was greater than 100 µM, the TGI [39] was greater than 100 µM and the TGI [40] was greater than 100 µM. For the same compound, the TGI [41] was greater than 100 µM, the TGI [42] was greater than 100 µM and the TGI [44] was greater than 100 µM. It also gave a TGI [45] greater than 100 µM, a TGI [46] greater than 100 µM and a TGI [48] greater than 100 µM. It also gave a TGI [49] of 65.8 µM, a TGI [50] greater than 100 µM and a TGI [51] greater than 100 µM. It also gave a TGI [55] greater than 100 µM.

From PubChem BioAssay (NCI)
